Values quoted from earlier work in patent US5525634A, “Colonic drug delivery system” (priority 1994, dated 1996).

Tests used:
morphine-dependent rats = details: for time to diarrhea, withdrawal behavior and tail skin temperature response: oral administration; for time to diarrhea, withdrawal behavior and tail skin temperature response / time to diarrhea: morphine-dependent rats; for time to diarrhea: direct colonic administration
[1] = small intestinal mucosa / esterases

For `C=C1CC[C@@]2(O)[C@H]3Cc4ccc(O)c5c4[C@@]2(CCN3CC2CC2)[C@H]1O5` [nalmefene], the “time to diarrhea, withdrawal behavior and tail skin temperature response” value (morphine-dependent rats) is given as ≤ 15 min.

In the case of `C=CCN1CC[C@]23c4c5ccc(O[C@@H]6O[C@H](C(=O)O)[C@@H](O)[C@H](O)[C@H]6O)c4O[C@H]2C(=O)CC[C@@]3(O)[C@H]1C5` [naloxone glucuronide], the time to diarrhea (morphine-dependent rats) is given as 5 to 8 min and the “activity on subcutaneous administration” value (morphine-dependent rats) is given as “inactive”.

In the case of `C=C1CCC2(O)C3Cc4ccc(OC5OC(C(=O)O)C(O)C(O)C5O)c5c4C2(CCN3CC2CC2)C1O5` (stereo not shown) [nalmefene glucuronide], the time to diarrhea (morphine-dependent rats) is given as 5 to 8 min and the “activity on subcutaneous administration” value (morphine-dependent rats) is given as “inactive”.

For `C=CCN1CC[C@]23c4c5ccc(O)c4O[C@H]2C(=O)CC[C@@]3(O)[C@H]1C5` [naloxone], the “time to diarrhea, withdrawal behavior and tail skin temperature response” value (morphine-dependent rats) is given as ≤ 15 min.

In the case of `CC(=O)Oc1ccc(C(c2ccc(OC(C)=O)cc2)c2ccccn2)cc1` [bisacodyl], the “passage through / cleavage in the small intestine” value [1] is listed as “readily cleaved by the esterases in the small intestine”.
